{"source": "patent US20230364118A1", "about": "“RIBITOL TREATMENT” (priority 2020, published 2023)", "key": {"[1]": {"experiment": "Phase 1 SAD/MAD study in healthy subjects", "assay_type": "in vivo, human", "details": "for Cmax / Tmax / AUC(0-t): human, in vivo, oral, steady state, 6 days; for AUC(0-t): read-out: AUC(0-24)", "excerpt": "The study described below is a randomized, blinded, placebo-controlled, parallel group study of the administration of single ascending doses (SAD) and multiple ascending doses (MAD) of ribitol to healthy subjects. The SAD part of this study includes 1 food effect (FE) cohort. The SAD and MAD phases of the study are nested.\nUp to a maximum of 6 cohorts will be enrolled. The starting dose will be 0.5 g. Tentative dose levels will be 1.5 g, 3 g, 6 g, and 12 g, however, actual dose increments (including possible decrements) for Cohorts 2 and above will be determined by the safety review committee (SRC) and based on a minimum of 24 h of post dose PK data and at least 72 h post dose safety data from the previous dose level. A sentinel dosing plan will be employed at each dose level where the first 2 healthy participants (1 ribitol, 1 placebo) of each cohort will be dosed as sentinels at least 24 h prior to dosing the remaining cohort's participants. Once the informed consent form (ICF) is signed and eligibility criteria are determined, subjects will be admitted to the clinical research unit (CRU) 1 day prior to dosing (Day −1). Continuous cardiac monitoring using telemetry will be performed starting at least 12 h prior to dosing through at least 24 h after dosing.\nSubjects will be admitted to the CRU 1 day prior to dosing (Day −1). On Day 1, subjects will start a 6-day course of orally administered daily study drug together with water after an overnight fast of at least 10 h prior to through at least 4 h after dosing. If dosing occurs more than once per day based on the data from the SAD cohort(s), instructions for dosing and any relaxation of the fasting requirements will be provided in a separate document. Water ad libitum is permitted except 1 h prior to through 1 h after dosing. Subjects will remain in the CRU until Day 8. Vital signs, ECGs, evaluation of AEs and blood draws for PK and safety laboratory tests will be obtained serially (see Schedule of Assessments, below). Subjects will return for an EOS visit on Day 10 (+5 day window allowed).\nIn the Phase 1 study, conducted essentially as described above, in Example 3. Subject in the single dose arm received 0.5, 1.5, 3, 6, 9, 12, or 15 grams of ribitol (data not shown). […] Subjects in the multiple dose arm received 1.5 g once daily, 3 g once daily, 3 g twice daily (q 12 h), 6 g twice daily (q 12 h), and 9 g twice daily (q 12 h). Subjects in the 3 g BID arm achieved steady-state AUC(0-24) values about the target threshold set by animal studies (182 μg*h/mL).\nClinical studies were performed as described in Example 3, with the exception that two additional doses of ribitol (9 g and 15 g) were administered in the SAD arm, i.e., the SAD doses were 0.5 g, 1.5 g, 3 g, 6 g, 9 g, 12 g, and 15 g ribitol."}, "[2]": {"experiment": "In vitro Ames assay", "assay_type": "cell-based"}, "[3]": {"test_system": "HPBLs", "experiment": "In vitro micronucleus assay", "assay_type": "cell-based, human", "procedure": "In this GLP-compliant study, ribitol was tested to evaluate the potential to induce micronuclei in HPBLs in both the absence and presence of S9. HPBL cells were treated for 4 hours in the absence and presence of S9, and for 24 hours in the absence of S9. Purified water was used as the vehicle. In the preliminary toxicity assay, the doses tested ranged from 0.0152 to 152 μg/mL (1 mM), which was the limit dose for this assay."}, "[4]": {"test_system": "P448L FKRP mutant mice", "experiment": "Efficacy in P448L FKRP mutant mouse model", "assay_type": "in vivo", "procedure": "Glycosylation levels increased from undetectable levels to up to 26% in skeletal muscles with a reduction in disease specific pathology such as central nucleated fibers (diaphragm) and fibrosis (heart).\nRibitol was studied in a P448L FKRP mutant mouse model to assess drug-mediated improvements in matriglycan expression and muscle performance. In one study the mutant mice were treated with doses of 10 g/kg daily by oral gavage or 2.5 g/kg ribitol IV injection weekly for one month.\nIn a long-term efficacy study the FKRP P448L mutant mice were dosed up to one year by oral gavage. Matriglycan expression was increased as measured by immunohistochemistry and Western Blot analysis after six months of dosing at 2 g/kg, 5 g/kg, and 10 g/kg daily (FIG. 3). […] Diaphragmatic performance was assessed using whole body plethysmography (FIGS. 5A-5F)."}, "[5]": {"experiment": "Single oral dose PK", "assay_type": "in vivo", "details": "Bama, minipig, plasma", "procedure": "The PK of ribitol was studied in 3 male and 3 female Bama minipigs following escalating PO dose levels using the same animals with a 48 hour washout period at 0.3 g/kg (Day 1) (FIG. 11A), 1.0 g/kg (Day 3) (FIG. 11B) and 0.3 g/kg TID (Day 16) (FIG. 11C). On Days 1 and 3, blood samples were collected at 0, 0.5, 1, 2, 4, 8, 12, and 24 hours post dose from all animals. On Day 16, blood samples were collected from all animals at 0, 0.5, 1, 2, 4, 6 (pre-second dose), 6.5, 7, 8, 10, 12 (pre-third dose), 12.5, 13, 14, 16, and 24 hours post dose."}, "[6]": {"details": "3 g, 3 g q 12 h (total 6 g/day)"}, "[7]": {"details": "6 g q 12 h, 6 g q 12 h (total 12 g/day)"}, "[8]": {"details": "9 g, 9 g q 12 h (total 18 g/day)"}, "[9]": {"details": "single doses 0.5, 1.5, 3, 6, 9, 12, 15 g"}}, "note": "Entries after “also recorded” stand apart in the source; their conditions may differ. Where two headings read alike, the source gives them in different places.", "data": [{"smiles": "OC[C@@H](O)[C@@H](O)[C@@H](O)CO", "note": "[ribitol, (2R,3s,4S)-Pentane-1,2,3,4,5-pentol]", "values": [{"measurement": "dose linearity with exposure", "setting": "[1]; SAD 0.5-15 g", "result": "confirmed dose linearity with exposure"}, {"measurement": "Cmax", "setting": "[1]; 1.5 g, 1.5 g once daily", "result": 25, "unit": "µg/mL"}, {"measurement": "Tmax", "setting": "[1]; 1.5 g, 1.5 g once daily", "result": 30.2, "unit": "min"}, {"measurement": "AUC(0-t)", "setting": "[1]; 1.5 g, 1.5 g once daily", "result": 59.8, "unit": "µg·h/mL"}, {"measurement": "Cmax", "setting": "[1]; 3 g, 3 g once daily", "result": 35.6, "unit": "µg/mL"}, {"measurement": "Tmax", "setting": "[1]; 3 g, 3 g once daily", "result": 30.2, "unit": "min"}, {"measurement": "AUC(0-t)", "setting": "[1]; 3 g, 3 g once daily", "result": 95, "unit": "µg·h/mL"}, {"measurement": "Cmax", "setting": "[1]; [6]", "result": 38, "unit": "µg/mL"}, {"measurement": "Tmax", "setting": "[1]; [6]", "result": 30.1, "unit": "min"}, {"measurement": "AUC(0-t)", "setting": "[1]; [6]", "result": 219, "unit": "µg·h/mL"}, {"measurement": "Cmax", "setting": "[1]; [7]", "result": 107, "unit": "µg/mL"}, {"measurement": "Tmax", "setting": "[1]; [7]", "result": 45, "unit": "min"}, {"measurement": "AUC(0-t)", "setting": "[1]; [7]", "result": 500, "unit": "µg·h/mL"}, {"measurement": "Cmax", "setting": "[1]; [8]", "result": 143, "unit": "µg/mL"}, {"measurement": "Tmax", "setting": "[1]; [8]", "result": 30.1, "unit": "min"}, {"measurement": "AUC(0-t)", "setting": "[1]; [8]", "result": 673, "unit": "µg·h/mL"}, {"measurement": "dose limiting toxicity", "setting": "[1]; [9]", "result": "no dose limiting toxicity was observed"}, {"measurement": "tolerability", "setting": "[1]; [9]", "result": "well tolerated"}, {"measurement": "genotoxicity", "setting": "[2]", "result": "devoid of genotoxicity potential"}, {"measurement": "cytotoxicity", "setting": "[3]; 0.0152 to 152 μg/mL, with and without S9", "result": "Cytotoxicity was not observed"}, {"measurement": "induction of micronuclei", "setting": "[3]; 19 to 152 μg/mL, presence and absence of S9", "result": "negative; also recorded: devoid of genotoxicity potential"}, {"measurement": "treadmill exhaustion running distance and running time", "setting": "[4]; 2, 5 g/kg/day, 5 g/kg/dose BID, 3.3 g/kg/dose TID", "result": "improvements"}, {"measurement": "creatine kinase activity", "setting": "[4]; 6 months", "result": "decreased with increasing doses"}, {"measurement": "increase in running time", "setting": "[4]; 6 months, 2 g/kg/day", "result": "50-75%"}, {"measurement": "increase in treadmill distance", "setting": "[4]; 6 months, 2 g/kg/day", "result": 50, "unit": "%"}, {"measurement": "efficacious dose", "setting": "[4]; FKRP mutant mouse models", "result": 500, "unit": "mg/kg"}, {"measurement": "glycosylation levels in skeletal muscles", "setting": "[4]; from undetectable levels", "result": "up to 26%"}, {"measurement": "muscle histology", "setting": "[4]; long-term oral dosing", "result": "decreases in fibrosis"}, {"measurement": "levels of ribitol, ribitol-5-phosphate, CDP-ribitol in heart and leg muscles versus untreated mice", "setting": "[4]; oral or intravenous", "result": "up to 4 times"}, {"measurement": "AUC(0-inf)", "setting": "[5]; single PO 0.3 g/kg, female", "result": 245, "unit": "µg·h/mL"}, {"measurement": "Cmax", "setting": "[5]; single PO 0.3 g/kg, female", "result": 128, "unit": "µg/mL"}, {"measurement": "half-life", "setting": "[5]; single PO 0.3 g/kg, female", "result": 73.8, "unit": "min"}, {"measurement": "bioavailability", "setting": "[5]; single PO 0.3 g/kg, female, read-out: % F", "result": 65.3, "unit": "%"}, {"measurement": "Tmax", "setting": "[5]; single PO 0.3 g/kg, female, read-out: Tmax", "result": 40.2, "unit": "min"}, {"measurement": "AUC(0-inf)", "setting": "[5]; single PO 0.3 g/kg, male", "result": 210, "unit": "µg·h/mL"}, {"measurement": "Cmax", "setting": "[5]; single PO 0.3 g/kg, male", "result": 112, "unit": "µg/mL"}, {"measurement": "half-life", "setting": "[5]; single PO 0.3 g/kg, male", "result": 96, "unit": "min"}, {"measurement": "bioavailability", "setting": "[5]; single PO 0.3 g/kg, male, read-out: % F", "result": 55.9, "unit": "%"}, {"measurement": "Tmax", "setting": "[5]; single PO 0.3 g/kg, male, read-out: Tmax", "result": 30, "unit": "min"}, {"measurement": "AUC(0-inf)", "setting": "[5]; single PO 1.0 g/kg, female", "result": 878, "unit": "µg·h/mL"}, {"measurement": "Cmax", "setting": "[5]; single PO 1.0 g/kg, female", "result": 368, "unit": "µg/mL"}, {"measurement": "half-life", "setting": "[5]; single PO 1.0 g/kg, female", "result": 85.8, "unit": "min"}, {"measurement": "bioavailability", "setting": "[5]; single PO 1.0 g/kg, female, read-out: % F", "result": 70.2, "unit": "%"}, {"measurement": "Tmax", "setting": "[5]; single PO 1.0 g/kg, female, read-out: Tmax", "result": 40.2, "unit": "min"}, {"measurement": "AUC(0-inf)", "setting": "[5]; single PO 1.0 g/kg, male", "result": 869, "unit": "µg·h/mL"}, {"measurement": "Cmax", "setting": "[5]; single PO 1.0 g/kg, male", "result": 404, "unit": "µg/mL"}, {"measurement": "half-life", "setting": "[5]; single PO 1.0 g/kg, male", "result": 88.2, "unit": "min"}, {"measurement": "bioavailability", "setting": "[5]; single PO 1.0 g/kg, male, read-out: % F", "result": 69.4, "unit": "%"}, {"measurement": "Tmax", "setting": "[5]; single PO 1.0 g/kg, male, read-out: Tmax", "result": 30, "unit": "min"}, {"measurement": "Tmax", "setting": "[5]; both sexes, po, read-out: Tmax after oral administration", "result": "< 120", "unit": "min"}, {"measurement": "bioavailability", "setting": "[5]; both sexes, po, range over doses and sexes, read-out: oral bioavailability", "result": "55.9 to 70.2", "unit": "%"}]}]}
